A word on the IC50: it is the concentration at which inhibition is half-maximal.

The first experiment deals with plasmepsin II (Plasmodium falciparum, UniProt P46925). In words: biochemical.
plasmepsin II, sequence (P46925 125-453): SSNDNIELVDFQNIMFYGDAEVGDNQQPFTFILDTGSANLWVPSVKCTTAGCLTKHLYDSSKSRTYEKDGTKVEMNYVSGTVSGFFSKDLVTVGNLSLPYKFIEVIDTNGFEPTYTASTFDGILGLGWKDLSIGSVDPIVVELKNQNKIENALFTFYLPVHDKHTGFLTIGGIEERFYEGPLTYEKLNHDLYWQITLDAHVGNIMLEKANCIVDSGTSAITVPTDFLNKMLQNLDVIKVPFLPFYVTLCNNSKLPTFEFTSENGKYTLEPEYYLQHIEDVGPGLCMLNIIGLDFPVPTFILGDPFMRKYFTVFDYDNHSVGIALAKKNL
Details: not given
Take `CCCCCc1ccc(C(=O)N(CCCc2ccccc2)C2CCN(Cc3ccccc3)CC2)cc1` [Example 2]: half-maximal inhibition (IC50) required 1500 nM.

Staying with this experiment, now noted: Additional Examples table; FRET, pH 5, 37° C., 40 min, substrate 1 μM; read-out: IC50 (nM) on plasmepsin II.
In the case of `CCCCCc1ccc(C(=O)N(Cc2ccc(OCc3ccccc3)cc2)C2CCCN(Cc3ccccc3)C2)cc1` (racemic) [Example 105, (rac.)-N-(4-Benzyloxybenzyl)-N-(1-benzylpiperidin-3-yl)-4-pentyl-benzamide], the IC50 came out at 458 nM.

Staying with this experiment, now noted: […]; FRET, pH 5, 37° C., 40 min, substrate 1 μM; read-out: IC50 (nM) on plasmepsin II.
Consider `CCCCCc1ccc(CN(Cc2ccc(-c3ccccc3)cc2)C2CCCN(Cc3ccccc3)CC2)cc1` (racemic) [Example 34], for which the IC50 was determined as 1970 nM.

In the case of `CCCCCc1ccc(C(=O)N(Cc2ccc(-c3ccccc3)cc2)C2CCCN(Cc3ccccc3)CC2)cc1` (racemic) [Example 35], the IC50 came out at 1700 nM.

With `CCCCCc1ccc(C(=O)N(Cc2ccc(OCc3ccccc3)cc2)C2CCN(Cc3ccccc3)CC2)cc1` [Example 1], the IC50 came to 70 nM.

As to `CCCCOc1ccc(C(=O)N(Cc2ccc(OCc3ccccc3)cc2)C2CCN(Cc3ccccc3)CC2)cc1` [Example 3], the IC50 worked out at 1700 nM.

Regarding `CCCCCCCCCCCC(=O)N(Cc1ccc(OCc2ccccc2)cc1)C1CCN(Cc2ccccc2)CC1` [Example 6], the IC50 was determined as 1800 nM.

`CCCCCc1ccc(C(=O)N(Cc2ccc(Oc3ccccc3)cc2)C2CCN(Cc3ccccc3)CC2)cc1` [Example 7]: the IC50 is 462 nM.

Take `CCCCCCCCCCCC(=O)N(Cc1ccc(Oc2ccccc2)cc1)C1CCN(Cc2ccccc2)CC1` [Example 9]: the IC50 stood at 1700 nM.

For `CCCCCc1ccc(C(=O)N(Cc2ccc(OCc3ccccc3)c(OCc3ccccc3)c2)C2CCN(Cc3ccccc3)CC2)cc1` [Example 10], the IC50 turned out to be 1200 nM.

In the case of `CCCCOc1ccc(C(=O)N(Cc2ccc(OCc3ccccc3)c(OCc3ccccc3)c2)C2CCN(Cc3ccccc3)CC2)cc1` [Example 11], the IC50 came out at 3200 nM.

For `CCCCCCCCCCCC(=O)N(Cc1ccc(OCc2ccccc2)c(OCc2ccccc2)c1)C1CCN(Cc2ccccc2)CC1` [Example 13], the IC50 worked out at 2400 nM.

Turning to `CCCCCc1ccc(C(=O)N(Cc2ccc(-c3ccccc3)cc2)C2CCN(Cc3ccccc3)CC2)cc1` [Example 14], the IC50 is 84 nM.

`CCCCOc1ccc(C(=O)N(Cc2ccc(-c3ccccc3)cc2)C2CCN(Cc3ccccc3)CC2)cc1` [Example 15]: the IC50 was found to be 1300 nM.

For the molecule `CCCCCCCCCCCC(=O)N(Cc1ccc(-c2ccccc2)cc1)C1CCN(Cc2ccccc2)CC1` [Example 16], the IC50 turned out to be 1300 nM.

On to `CCCCCc1ccc(C(=O)N(Cc2ccc(C(F)(F)F)cc2)C2CCN(Cc3ccccc3)CC2)cc1` [Example 18], for which the IC50 was 148 nM.

In the case of `CCCCCc1ccc(C(=O)N(Cc2ccc(OCc3ccccc3)c(OC)c2)C2CCN(Cc3ccccc3)CC2)cc1` [Example 22], the IC50 was determined as 793 nM.

Turning to `CCCCCc1ccc(C(=O)N(Cc2ccc(CCCC)cc2)C2CCN(Cc3ccccc3)CC2)cc1` [Example 24], the IC50 stood at 427 nM.

On to `CCCCCc1ccc(C(=O)N(Cc2ccc(OCCCC)cc2)C2CCN(Cc3ccccc3)CC2)cc1` [Example 25], for which the IC50 was 220 nM.

On to `CCCCCc1ccc(CN(C(=O)c2ccc(CCCCC)cc2)C2CCN(Cc3ccccc3)CC2)cc1` [Example 26], for which the IC50 came out at 497 nM.

Take `CCCCCc1ccc(CN(Cc2ccc(C(F)(F)F)cc2)C2CCN(Cc3ccccc3)CC2)cc1` [Example 30]: the IC50 is 695 nM.

Regarding `CCCCCc1ccc(CN(Cc2ccc(-c3ccccc3)cc2)C2CCN(Cc3ccccc3)CC2)cc1` [Example 31], the IC50 turned out to be 210 nM.

Turning to `CCCCCc1ccc(C(=O)N(Cc2ccc(-c3ccc(C#N)cc3)cc2)C2CCN(Cc3ccoc3)CC2)cc1` [Example 32], the IC50 is 18 nM.

With `CCCCCc1ccc(CN(Cc2ccc(-c3ccc(OCCO)cc3)cc2)C2CCN(Cc3ccccc3)CC2)cc1` [Example 33], the IC50 is 96 nM.

`CCCCCc1ccc(C(=O)N(Cc2ccc(-c3ccccc3)cc2)[C@H]2CCN(Cc3ccccc3)C2)cc1` [Example 36]: the IC50 worked out at 164 nM.

The record behind these values is US20040102431A1, “Substituted amino-aza-cycloalkanes useful against malaria” (priority 2000, published 2004).
